This is an account of results in ChEMBL document CHEMBL1125983, “Synthesis and evaluation of new protein-tyrosine kinase inhibitors. Part 2. Phenylhydrazones” (Bioorg Med Chem Lett, 1991).

SMILES strings stand for the structures.

Tyrosine-protein kinase Lck, sequence (P06239 whole entry): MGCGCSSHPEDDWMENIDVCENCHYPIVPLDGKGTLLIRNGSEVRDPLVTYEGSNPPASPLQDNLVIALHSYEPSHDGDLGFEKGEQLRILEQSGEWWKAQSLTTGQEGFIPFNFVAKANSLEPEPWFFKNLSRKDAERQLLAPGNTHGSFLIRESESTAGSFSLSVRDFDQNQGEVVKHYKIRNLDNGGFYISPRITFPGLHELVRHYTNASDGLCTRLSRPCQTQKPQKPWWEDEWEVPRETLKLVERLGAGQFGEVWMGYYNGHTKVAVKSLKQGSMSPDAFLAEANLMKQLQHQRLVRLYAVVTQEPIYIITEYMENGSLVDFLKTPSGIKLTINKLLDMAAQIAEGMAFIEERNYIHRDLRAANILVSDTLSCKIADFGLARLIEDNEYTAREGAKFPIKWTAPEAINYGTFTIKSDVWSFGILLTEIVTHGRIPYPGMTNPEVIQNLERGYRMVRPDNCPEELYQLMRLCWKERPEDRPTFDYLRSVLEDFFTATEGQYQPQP

The experiment has as its target Tyrosine-protein kinase Lck (Homo sapiens, UniProt P06239). Briefly: Inhibitory concentration against phosphorylation of angiotensin I catalyzed by protein-tyrosine kinase p56lck.
As to `COc1ccc(N/N=C/c2cccc(O)c2O)cc1`, the IC50 (in general, the concentration needed to halve the response being measured) stood at 0.31 mM.
As to `C(=N\Nc1ccccc1)/c1ccncc1`, the half-maximal inhibitory concentration (IC50) was more than 4.06 mM.
For the molecule `O=[N+]([O-])c1ccc(N/N=C/c2ccc(O)c(O)c2O)c([N+](=O)[O-])c1`, the IC50 was found to be 0.144 mM.
With `COc1ccc(/C=N/Nc2ccc(Br)cc2)cc1O`, the concentration for half-maximal inhibition (IC50) was more than 2.49 mM.
`COc1cc(/C=N/Nc2ccccc2)ccc1O` showed a 50% inhibitory concentration (IC50) of 2.59 mM.
As to `Oc1ccc(/C=N/Nc2ccccn2)cc1O`, 0.227 mM corresponded to half-maximal inhibition (IC50).
In turn, `Oc1ccc(/C=N/Nc2ccc(Br)cc2)c(O)c1O` had an IC50 of 1.04 mM. Against the preceding molecule, the IC50 is about 4.6-fold higher.
`O=[N+]([O-])c1cccc(/C=N/Nc2ccccc2)c1` showed an IC50 of more than 3.32 mM.
As for `O=[N+]([O-])c1ccc(N/N=C/c2ccc(O)cc2O)c([N+](=O)[O-])c1`, the figure is 1 mM; as for `Oc1ccc(/C=N/Nc2ccccn2)c(O)c1`, 1.01 mM.
For the molecule `C(=N\Nc1ccccc1)/c1cccnc1`, it took 1.32 mM to reach half-maximal inhibition (IC50).
Turning to `Oc1ccc(O)c(/C=N/Nc2ccccc2)c1`, the IC50 is more than 3.5 mM.
With `COc1ccc(N/N=C/c2cc(O)ccc2O)cc1`, the IC50 is 0.31 mM.
Consider `Brc1ccc(N/N=C/c2ccncc2)cc1`, for which the IC50 was more than 2.9 mM.
In turn, `Brc1ccc(N/N=C/c2ccccn2)cc1` yielded a half-inhibitory concentration (IC50) of more than 2.9 mM.
In the case of `Oc1cccc(/C=N/Nc2ccccc2)c1O`, the IC50 worked out at 1.26 mM.
Molecule `Oc1ccc(/C=N/Nc2ccccc2)cc1O` displayed an IC50 of 0.07 mM.
Molecule `Oc1cc(/C=N/Nc2ccccn2)cc(O)c1O` came in with an IC50 of 0.179 mM.
In turn, `Oc1ccc(/C=N/Nc2ccc(Br)cc2)c(O)c1` gave a 50% inhibitory concentration (IC50) of 0.521 mM.
The same measure for `Oc1ccc(Br)cc1/C=N/Nc1ccccc1`: more than 2.6 mM.
For `C(=N\Nc1ccccn1)/c1cccnc1`, it took 0.4 mM to reach half-maximal inhibition (IC50).
Take `Brc1ccc(N/N=C/c2cccnc2)cc1`: the half-maximal inhibitory concentration (IC50) was more than 2.9 mM.
As for `Oc1ccc(Br)cc1/C=N/Nc1ccc(Br)cc1`, the IC50 was more than 2.16 mM.
The molecule `COc1ccc(/C=N/Nc2ccccc2)cc1O` gave an IC50 of 2.11 mM.
`COc1ccc(N/N=C/c2ccc(O)c(O)c2)cc1` returned an IC50 of 0.743 mM.
For `Oc1ccc(/C=N/Nc2ccccn2)c(O)c1O`, the IC50 was 0.522 mM.
`O=[N+]([O-])c1ccc(/C=N/Nc2ccccc2)cc1`: the 50% inhibitory concentration (IC50) is more than 3.32 mM.
As to `C(=N\Nc1ccccc1)/c1ccccn1`, the half-inhibitory concentration (IC50) was more than 4.06 mM.
In the case of `Oc1ccc(/C=N/Nc2ccccc2)c(O)c1O`, the IC50 came out at 1.57 mM.
Molecule `O=[N+]([O-])c1ccc(N/N=C/c2cccc(O)c2O)c([N+](=O)[O-])c1` came in with an IC50 of more than 2.51 mM.
`Oc1ccc(/C=N/Nc2ccccc2)c(O)c1` gave an IC50 of 0.35 mM.
`Oc1ccc(/C=N/Nc2ccc(Br)cc2)cc1O`: the half-inhibitory concentration (IC50) was 0.599 mM.
In turn, `O=[N+]([O-])c1ccc(N/N=C/c2ccc(O)c(O)c2)c([N+](=O)[O-])c1` returned an IC50 of 0.352 mM.
